Legend:
Experiment in all cases: radiometric filter-binding kinase assay, Kinase HotSpot
PTK2B (human) = PTK2B (human) (UniProt Q14289); conditions: compound 0.5 µM; ATP 10 µM
EPHA3 (human) = EPHA3 (human) (UniProt P29320); conditions: compound 0.5 µM; ATP 10 µM
CSNK1D (human) = CSNK1D (human) (UniProt P48730); conditions: compound 0.5 µM
DAPK2 (human) = DAPK2 (human) (UniProt Q9UIK4); conditions: compound 0.5 µM; ATP 10 µM
MYLK2 (human) = MYLK2 (human) (UniProt Q9H1R3); conditions: compound 0.5 µM; ATP 10 µM
AURKB (human) = AURKB (human) (UniProt Q96GD4); conditions: compound 0.5 µM; ATP 10 µM
HIPK2 (human) = HIPK2 (human) (UniProt Q9H2X6); conditions: compound 0.5 µM; ATP 10 µM
RPS6KA5 KD2 (human) = RPS6KA5 KD2 (human) (UniProt O75582); conditions: compound 0.5 µM; ATP 10 µM
CDK2 CCNE1 (human) = CDK2 CCNE1 (human) (UniProt P24941+P24864); conditions: compound 0.5 µM
MUSK (human) = MUSK (human) (UniProt O15146); conditions: compound 0.5 µM; ATP 10 µM
PLK3 (human) = PLK3 (human) (UniProt Q9H4B4); conditions: compound 0.5 µM; ATP 10 µM
NEK2 (human) = NEK2 (human) (UniProt P51955); conditions: compound 0.5 µM; ATP 10 µM
NUAK2 (human) = NUAK2 (human) (UniProt Q9H093); conditions: compound 0.5 µM; ATP 10 µM
PRKCH (human) = PRKCH (human) (UniProt P24723); conditions: compound 0.5 µM; ATP 10 µM
FGFR2 (human) = FGFR2 (human) (UniProt P21802); conditions: compound 0.5 µM; ATP 10 µM
TBK1 (human) = TBK1 (human) (UniProt Q9UHD2); conditions: compound 0.5 µM; ATP 10 µM
PDPK1 (human) = PDPK1 (human) (UniProt O15530); conditions: compound 0.5 µM; ATP 10 µM
EPHB4 (human) = EPHB4 (human) (UniProt P54760); conditions: compound 0.5 µM; ATP 10 µM
CHEK1 (human) = CHEK1 (human) (UniProt O14757); conditions: compound 0.5 µM; ATP 10 µM
BTK (human) = BTK (human) (UniProt Q06187); conditions: compound 0.5 µM; ATP 10 µM
NEK9 (human) = NEK9 (human) (UniProt Q8TD19); conditions: compound 0.5 µM; ATP 10 µM
MATK (human) = MATK (human) (UniProt P42679); conditions: compound 0.5 µM; ATP 10 µM
RET (human) = RET (human) (UniProt P07949); conditions: compound 0.5 µM; ATP 10 µM
NEK6 (human) = NEK6 (human) (UniProt Q9HC98); conditions: compound 0.5 µM; ATP 10 µM
[1] = biological target: JAK1 JH1 catalytic (human) (UniProt P23458); conditions: compound 0.5 µM; ATP 10 µM
ERBB4 (human) = ERBB4 (human) (UniProt Q15303); conditions: compound 0.5 µM; ATP 10 µM
CDK7 CCNH MNAT1 (human) = CDK7 CCNH MNAT1 (human) (UniProt P50613+P51948+P51946); conditions: compound 0.5 µM
FRK (human) = FRK (human) (UniProt P42685); conditions: compound 0.5 µM; ATP 10 µM
SRMS (human) = SRMS (human) (UniProt Q9H3Y6); conditions: compound 0.5 µM; ATP 10 µM
PRKD2 (human) = PRKD2 (human) (UniProt Q9BZL6); conditions: compound 0.5 µM; ATP 10 µM
MYLK (human) = MYLK (human) (UniProt Q15746); conditions: compound 0.5 µM
IRAK1 (human) = IRAK1 (human) (UniProt P51617); conditions: compound 0.5 µM; ATP 10 µM
TEC (human) = TEC (human) (UniProt P42680); conditions: compound 0.5 µM; ATP 10 µM
ACVR1 (human) = ACVR1 (human) (UniProt Q04771); conditions: compound 0.5 µM; ATP 10 µM
SRPK2 (human) = SRPK2 (human) (UniProt P78362); conditions: compound 0.5 µM; ATP 10 µM
NEK4 (human) = NEK4 (human) (UniProt P51957); conditions: compound 0.5 µM; ATP 10 µM
TGFBR1 (human) = TGFBR1 (human) (UniProt P36897); conditions: compound 0.5 µM; ATP 10 µM
MAPK3 (human) = MAPK3 (human) (UniProt P27361); conditions: compound 0.5 µM; ATP 10 µM
SIK2 (human) = SIK2 (human) (UniProt Q9H0K1); conditions: compound 0.5 µM; ATP 10 µM
NEK1 (human) = NEK1 (human) (UniProt Q96PY6); conditions: compound 0.5 µM; ATP 10 µM
PRKCD (human) = PRKCD (human) (UniProt Q05655); conditions: compound 0.5 µM; ATP 10 µM
CLK2 (human) = CLK2 (human) (UniProt P49760); conditions: compound 0.5 µM; ATP 10 µM

Chain of MATK (human) (P42679 whole entry, looked up): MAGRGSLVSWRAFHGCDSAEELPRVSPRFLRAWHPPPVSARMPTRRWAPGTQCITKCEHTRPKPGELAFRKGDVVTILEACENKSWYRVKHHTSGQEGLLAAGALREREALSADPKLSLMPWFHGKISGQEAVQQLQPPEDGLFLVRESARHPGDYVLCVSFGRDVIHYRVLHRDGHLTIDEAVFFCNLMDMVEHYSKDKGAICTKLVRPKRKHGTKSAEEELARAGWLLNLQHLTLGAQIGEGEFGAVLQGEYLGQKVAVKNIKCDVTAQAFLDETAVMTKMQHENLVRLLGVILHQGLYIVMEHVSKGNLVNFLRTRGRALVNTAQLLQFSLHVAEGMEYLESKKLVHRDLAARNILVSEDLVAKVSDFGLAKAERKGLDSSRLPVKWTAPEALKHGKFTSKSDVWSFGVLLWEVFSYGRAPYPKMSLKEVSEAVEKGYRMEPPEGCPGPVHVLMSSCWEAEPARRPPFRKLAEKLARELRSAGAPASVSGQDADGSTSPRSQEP
Chain of SIK2 (human) (Q9H0K1 whole entry, looked up): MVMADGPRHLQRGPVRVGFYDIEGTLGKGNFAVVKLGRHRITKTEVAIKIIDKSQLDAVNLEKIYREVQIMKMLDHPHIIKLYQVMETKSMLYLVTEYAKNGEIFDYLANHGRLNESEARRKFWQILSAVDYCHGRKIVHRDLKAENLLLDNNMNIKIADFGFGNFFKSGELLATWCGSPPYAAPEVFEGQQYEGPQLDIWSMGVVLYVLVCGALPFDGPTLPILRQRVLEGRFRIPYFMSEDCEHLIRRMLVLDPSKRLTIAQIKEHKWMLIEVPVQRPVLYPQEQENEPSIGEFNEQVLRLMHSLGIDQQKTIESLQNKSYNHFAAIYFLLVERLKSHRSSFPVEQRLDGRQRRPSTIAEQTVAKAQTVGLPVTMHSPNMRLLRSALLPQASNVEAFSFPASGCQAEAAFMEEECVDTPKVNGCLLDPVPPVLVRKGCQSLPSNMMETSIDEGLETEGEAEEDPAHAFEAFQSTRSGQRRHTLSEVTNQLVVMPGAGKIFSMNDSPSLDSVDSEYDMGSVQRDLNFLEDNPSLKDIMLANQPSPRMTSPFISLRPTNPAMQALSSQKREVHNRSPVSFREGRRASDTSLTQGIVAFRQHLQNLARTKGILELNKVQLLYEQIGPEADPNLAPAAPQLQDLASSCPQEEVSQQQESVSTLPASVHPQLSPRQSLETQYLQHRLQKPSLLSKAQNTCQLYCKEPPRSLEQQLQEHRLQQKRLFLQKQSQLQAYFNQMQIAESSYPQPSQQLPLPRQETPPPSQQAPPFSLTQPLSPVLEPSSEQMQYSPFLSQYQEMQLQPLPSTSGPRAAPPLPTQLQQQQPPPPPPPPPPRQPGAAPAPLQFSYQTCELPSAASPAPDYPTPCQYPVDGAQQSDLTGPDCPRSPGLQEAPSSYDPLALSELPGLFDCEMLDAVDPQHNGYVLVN
Chain of PTK2B (human) (Q14289 whole entry, looked up): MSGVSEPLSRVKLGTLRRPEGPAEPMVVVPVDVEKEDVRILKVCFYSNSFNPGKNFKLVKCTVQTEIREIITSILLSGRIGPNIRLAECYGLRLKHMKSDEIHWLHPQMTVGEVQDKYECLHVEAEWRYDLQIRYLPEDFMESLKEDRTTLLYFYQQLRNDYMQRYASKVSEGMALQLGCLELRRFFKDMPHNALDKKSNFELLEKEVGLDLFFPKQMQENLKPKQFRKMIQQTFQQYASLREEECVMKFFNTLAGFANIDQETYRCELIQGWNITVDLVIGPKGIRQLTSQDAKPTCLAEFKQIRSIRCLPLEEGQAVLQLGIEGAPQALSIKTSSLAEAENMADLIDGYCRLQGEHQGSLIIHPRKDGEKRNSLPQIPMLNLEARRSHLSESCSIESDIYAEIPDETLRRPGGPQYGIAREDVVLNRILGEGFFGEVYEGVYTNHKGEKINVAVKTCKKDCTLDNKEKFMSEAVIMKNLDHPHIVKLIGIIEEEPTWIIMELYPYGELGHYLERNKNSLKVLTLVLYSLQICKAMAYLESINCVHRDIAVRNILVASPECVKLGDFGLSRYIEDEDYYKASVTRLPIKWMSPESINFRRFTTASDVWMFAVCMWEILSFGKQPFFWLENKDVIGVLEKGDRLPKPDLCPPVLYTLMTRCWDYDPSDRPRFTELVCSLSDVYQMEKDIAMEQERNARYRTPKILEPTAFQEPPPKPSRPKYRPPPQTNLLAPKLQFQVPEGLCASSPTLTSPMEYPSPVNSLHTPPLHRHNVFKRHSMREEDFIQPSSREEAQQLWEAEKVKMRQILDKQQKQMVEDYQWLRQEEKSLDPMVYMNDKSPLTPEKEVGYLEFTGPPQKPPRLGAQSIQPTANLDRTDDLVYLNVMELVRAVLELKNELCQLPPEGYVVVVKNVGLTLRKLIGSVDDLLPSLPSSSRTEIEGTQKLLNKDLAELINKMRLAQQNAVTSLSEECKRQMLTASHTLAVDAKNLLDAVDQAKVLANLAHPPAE
Chain of FRK (human) (P42685 whole entry, looked up): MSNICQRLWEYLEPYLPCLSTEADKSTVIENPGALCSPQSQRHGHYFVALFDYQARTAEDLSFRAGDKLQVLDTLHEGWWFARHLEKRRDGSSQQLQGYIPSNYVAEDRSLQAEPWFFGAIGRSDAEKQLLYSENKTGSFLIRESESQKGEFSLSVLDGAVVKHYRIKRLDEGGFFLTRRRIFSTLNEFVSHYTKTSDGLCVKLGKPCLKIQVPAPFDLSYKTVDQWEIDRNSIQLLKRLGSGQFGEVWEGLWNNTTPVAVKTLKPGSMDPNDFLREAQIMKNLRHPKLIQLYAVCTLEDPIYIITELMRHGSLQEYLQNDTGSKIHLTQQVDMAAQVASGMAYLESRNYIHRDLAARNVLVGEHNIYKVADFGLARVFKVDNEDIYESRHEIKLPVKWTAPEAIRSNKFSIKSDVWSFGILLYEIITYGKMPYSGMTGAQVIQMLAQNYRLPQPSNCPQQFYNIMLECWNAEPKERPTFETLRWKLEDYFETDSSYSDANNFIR
Chain of PLK3 (human) (Q9H4B4 whole entry, looked up): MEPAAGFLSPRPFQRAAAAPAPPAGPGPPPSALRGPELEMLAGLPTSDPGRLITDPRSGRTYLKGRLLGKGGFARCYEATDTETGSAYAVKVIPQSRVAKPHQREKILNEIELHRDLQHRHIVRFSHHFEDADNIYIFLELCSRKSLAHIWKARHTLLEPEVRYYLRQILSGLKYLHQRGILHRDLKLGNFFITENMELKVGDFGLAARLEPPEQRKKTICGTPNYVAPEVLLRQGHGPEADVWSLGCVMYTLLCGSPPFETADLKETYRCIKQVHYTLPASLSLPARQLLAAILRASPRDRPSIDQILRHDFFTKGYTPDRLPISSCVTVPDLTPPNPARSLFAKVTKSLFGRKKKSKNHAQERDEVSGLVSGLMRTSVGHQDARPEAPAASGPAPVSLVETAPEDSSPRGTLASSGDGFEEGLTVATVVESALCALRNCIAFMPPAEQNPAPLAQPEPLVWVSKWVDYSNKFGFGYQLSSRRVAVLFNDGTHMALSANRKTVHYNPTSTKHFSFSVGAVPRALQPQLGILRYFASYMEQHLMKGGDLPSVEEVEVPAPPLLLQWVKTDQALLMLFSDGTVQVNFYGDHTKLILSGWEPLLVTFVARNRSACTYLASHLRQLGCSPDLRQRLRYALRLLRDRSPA
Chain of MUSK (human) (O15146 whole entry, looked up): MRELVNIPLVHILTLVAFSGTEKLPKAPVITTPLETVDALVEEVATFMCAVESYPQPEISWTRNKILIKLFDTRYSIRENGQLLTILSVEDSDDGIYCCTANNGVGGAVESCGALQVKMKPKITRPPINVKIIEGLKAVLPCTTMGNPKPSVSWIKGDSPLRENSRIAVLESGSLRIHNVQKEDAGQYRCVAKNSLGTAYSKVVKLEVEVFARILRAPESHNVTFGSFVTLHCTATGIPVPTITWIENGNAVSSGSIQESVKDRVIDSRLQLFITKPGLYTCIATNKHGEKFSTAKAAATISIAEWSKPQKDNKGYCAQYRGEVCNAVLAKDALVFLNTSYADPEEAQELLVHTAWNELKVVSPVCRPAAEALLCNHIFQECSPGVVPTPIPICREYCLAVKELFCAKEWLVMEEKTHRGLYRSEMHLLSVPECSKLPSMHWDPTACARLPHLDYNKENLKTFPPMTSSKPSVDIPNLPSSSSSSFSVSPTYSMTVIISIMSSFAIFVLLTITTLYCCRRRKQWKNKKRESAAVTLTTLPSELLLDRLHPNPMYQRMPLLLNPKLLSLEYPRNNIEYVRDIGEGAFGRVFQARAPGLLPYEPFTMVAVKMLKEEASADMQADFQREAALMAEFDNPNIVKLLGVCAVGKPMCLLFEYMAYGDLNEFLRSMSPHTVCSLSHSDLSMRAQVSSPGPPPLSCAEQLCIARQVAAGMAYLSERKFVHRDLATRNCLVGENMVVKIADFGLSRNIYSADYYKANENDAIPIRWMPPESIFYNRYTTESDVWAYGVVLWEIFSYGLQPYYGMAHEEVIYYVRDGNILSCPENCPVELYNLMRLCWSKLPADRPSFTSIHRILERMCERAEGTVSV
Chain of NEK6 (human) (Q9HC98 whole entry, looked up): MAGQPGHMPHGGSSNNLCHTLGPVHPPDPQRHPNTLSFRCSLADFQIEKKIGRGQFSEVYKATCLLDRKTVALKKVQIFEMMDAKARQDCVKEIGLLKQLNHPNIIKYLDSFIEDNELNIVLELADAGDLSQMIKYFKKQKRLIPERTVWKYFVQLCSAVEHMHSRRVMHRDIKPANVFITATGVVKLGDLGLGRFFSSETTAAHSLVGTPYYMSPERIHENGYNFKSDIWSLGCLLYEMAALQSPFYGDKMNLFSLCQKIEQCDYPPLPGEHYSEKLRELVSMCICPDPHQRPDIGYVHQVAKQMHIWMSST

COc1cc2c(cc1OC)-c1[nH]nc(Nc3cccc(F)c3)c1C2
residual activity (PTK2B (human)): 98% | residual activity (EPHA3 (human)): 94.5% | residual activity (CSNK1D (human); ATP 10 µM): 99.9% | residual activity (DAPK2 (human)): 86.7% | residual activity (MYLK2 (human)): 86.4% | residual activity (AURKB (human)): 79.2% | residual activity (HIPK2 (human)): 103% | residual activity (RPS6KA5 KD2 (human)): 96% | residual activity (CDK2 CCNE1 (human); ATP 10 µM): 88.6% | residual activity (MUSK (human)): 82.7% | residual activity (PLK3 (human)): 94.9% | residual activity (NEK2 (human)): 93% | residual activity (NUAK2 (human)): 94.6% | residual activity (PRKCH (human)): 92.1% | residual activity (FGFR2 (human)): 100% | residual activity (TBK1 (human)): 101% | residual activity (PDPK1 (human)): 95.9% | residual activity (EPHB4 (human)): 95.3% | residual activity (CHEK1 (human)): 92.4% | residual activity (BTK (human)): 40.8% | residual activity (NEK9 (human)): 102% | residual activity (MATK (human)): 92.1% | residual activity (RET (human)): 83.6% | residual activity (NEK6 (human)): 105% | residual activity [1]: 97.6% | residual activity (ERBB4 (human)): 96.5% | residual activity (CDK7 CCNH MNAT1 (human); ATP 10 µM): 101% | residual activity (FRK (human)): 67.9% | residual activity (SRMS (human)): 99.9% | residual activity (PRKD2 (human)): 96.3% | residual activity (MYLK (human); ATP 10 µM): 102% | residual activity (IRAK1 (human)): 97.8% | residual activity (TEC (human)): 95% | residual activity (ACVR1 (human)): 107% | residual activity (SRPK2 (human)): 87.8% | residual activity (NEK4 (human)): 101% | residual activity (TGFBR1 (human)): 101% | residual activity (MAPK3 (human)): 93.7% | residual activity (SIK2 (human)): 38.6% | residual activity (NEK1 (human)): 93% | residual activity (PRKCD (human)): 111% | residual activity (CLK2 (human)): 84.3%

O=c1c2ccccc2[nH]c(=S)n1CCN1CCC(=C(c2ccc(F)cc2)c2ccc(F)cc2)CC1
residual activity (PTK2B (human)): 98.5% | residual activity (EPHA3 (human)): 101% | residual activity (CSNK1D (human); ATP 10 µM): 100% | residual activity (DAPK2 (human)): 104% | residual activity (MYLK2 (human)): 99.9% | residual activity (AURKB (human)): 102% | residual activity (HIPK2 (human)): 105% | residual activity (RPS6KA5 KD2 (human)): 105% | residual activity (CDK2 CCNE1 (human); ATP 10 µM): 97.3% | residual activity (MUSK (human)): 93.6% | residual activity (PLK3 (human)): 96.2% | residual activity (NEK2 (human)): 100% | residual activity (NUAK2 (human)): 106% | residual activity (PRKCH (human)): 102% | residual activity (FGFR2 (human)): 101% | residual activity (TBK1 (human)): 104% | residual activity (PDPK1 (human)): 99.2% | residual activity (EPHB4 (human)): 97.1% | residual activity (CHEK1 (human)): 108% | residual activity (BTK (human)): 105% | residual activity (NEK9 (human)): 97% | residual activity (MATK (human)): 92.9% | residual activity (RET (human)): 106% | residual activity (NEK6 (human)): 96.2% | residual activity [1]: 105% | residual activity (ERBB4 (human)): 87.4% | residual activity (CDK7 CCNH MNAT1 (human); ATP 10 µM): 99.6% | residual activity (FRK (human)): 100% | residual activity (SRMS (human)): 96.7% | residual activity (PRKD2 (human)): 98.9% | residual activity (MYLK (human); ATP 10 µM): 96.2% | residual activity (IRAK1 (human)): 106% | residual activity (TEC (human)): 110% | residual activity (ACVR1 (human)): 107% | residual activity (SRPK2 (human)): 94.1% | residual activity (NEK4 (human)): 99.1% | residual activity (TGFBR1 (human)): 96.2% | residual activity (MAPK3 (human)): 105% | residual activity (SIK2 (human)): 89.7% | residual activity (NEK1 (human)): 109% | residual activity (PRKCD (human)): 95.7% | residual activity (CLK2 (human)): 87.8%

O=c1cc(N2CCOCC2)oc2c(-c3ccccc3)cccc12
residual activity (PTK2B (human)): 107% | residual activity (EPHA3 (human)): 98.7% | residual activity (CSNK1D (human); ATP 10 µM): 100% | residual activity (DAPK2 (human)): 126% | residual activity (MYLK2 (human)): 102% | residual activity (AURKB (human)): 99.6% | residual activity (HIPK2 (human)): 122% | residual activity (RPS6KA5 KD2 (human)): 99.5% | residual activity (CDK2 CCNE1 (human); ATP 10 µM): 93% | residual activity (MUSK (human)): 102% | residual activity (PLK3 (human)): 71.9% | residual activity (NEK2 (human)): 89.8% | residual activity (NUAK2 (human)): 95.1% | residual activity (PRKCH (human)): 99% | residual activity (FGFR2 (human)): 95.8% | residual activity (TBK1 (human)): 94.1% | residual activity (PDPK1 (human)): 104% | residual activity (EPHB4 (human)): 99.5% | residual activity (CHEK1 (human)): 104% | residual activity (BTK (human)): 94.5% | residual activity (NEK9 (human)): 101% | residual activity (MATK (human)): 84.6% | residual activity (RET (human)): 99.2% | residual activity (NEK6 (human)): 112% | residual activity [1]: 108% | residual activity (ERBB4 (human)): 102% | residual activity (CDK7 CCNH MNAT1 (human); ATP 10 µM): 95.4% | residual activity (FRK (human)): 101% | residual activity (SRMS (human)): 103% | residual activity (PRKD2 (human)): 93.8% | residual activity (MYLK (human); ATP 10 µM): 97.8% | residual activity (IRAK1 (human)): 104% | residual activity (TEC (human)): 107% | residual activity (ACVR1 (human)): 91.2% | residual activity (SRPK2 (human)): 98.2% | residual activity (NEK4 (human)): 95.1% | residual activity (TGFBR1 (human)): 97.5% | residual activity (MAPK3 (human)): 104% | residual activity (SIK2 (human)): 96.8% | residual activity (NEK1 (human)): 86.7% | residual activity (PRKCD (human)): 96% | residual activity (CLK2 (human)): 100%

O=c1[nH]c2ccccc2n1C1CCN(Cc2ccc(-c3nc4cc5[nH]cnc5cc4nc3-c3ccccc3)cc2)CC1
residual activity (PTK2B (human)): 105% | residual activity (EPHA3 (human)): 71.9% | residual activity (CSNK1D (human)): 100% | residual activity (DAPK2 (human)): 99% | residual activity (MYLK2 (human)): 103% | residual activity (AURKB (human)): 98.7% | residual activity (HIPK2 (human)): 110% | residual activity (RPS6KA5 KD2 (human)): 103% | residual activity (CDK2 CCNE1 (human)): 95.6% | residual activity (MUSK (human)): 96.8% | residual activity (PLK3 (human)): 99.1% | residual activity (NEK2 (human)): 96.8% | residual activity (NUAK2 (human)): 90.4% | residual activity (PRKCH (human)): 101% | residual activity (FGFR2 (human)): 94.2% | residual activity (TBK1 (human)): 92.7% | residual activity (PDPK1 (human)): 107% | residual activity (EPHB4 (human)): 96.4% | residual activity (CHEK1 (human)): 107% | residual activity (BTK (human)): 98.4% | residual activity (NEK9 (human)): 99.2% | residual activity (MATK (human)): 102% | residual activity (RET (human)): 96.7% | residual activity (NEK6 (human)): 98.2% | residual activity [1]: 94.6% | residual activity (ERBB4 (human)): 105% | residual activity (CDK7 CCNH MNAT1 (human)): 99.1% | residual activity (FRK (human)): 102% | residual activity (SRMS (human)): 93.1% | residual activity (PRKD2 (human)): 109% | residual activity (MYLK (human)): 104% | residual activity (IRAK1 (human)): 109% | residual activity (TEC (human)): 162% | residual activity (ACVR1 (human)): 102% | residual activity (SRPK2 (human)): 116% | residual activity (NEK4 (human)): 106% | residual activity (TGFBR1 (human)): 102% | residual activity (MAPK3 (human)): 118% | residual activity (SIK2 (human)): 114% | residual activity (NEK1 (human)): 101% | residual activity (PRKCD (human)): 98.8% | residual activity (CLK2 (human)): 114%

— the kinase profiling compilation of Christmann-Franck et al. (2016)
